Data on 25 compounds can be found in PubChem BioAssay AID330 (DTP/NCI, 2004).

Values joined by “and” are separate entries in the source; they are usually repeats but may differ in a detail not shown here. Equal entries are not always repeated. Inconclusive results and toxic doses are left out. Peptide text beside a SMILES is read from it.

In the experiment the test system is P388 leukemia ip, CD2F1 mice, survival T/C. Put plainly: NCI In Vivo Anticancer Drug Screen. Data for tumor model P388 Leukemia (intraperitoneal) in CD2F1 (CDF1) mice. The settings on record: endpoint: median survival time, higher = longer survival. The essentials:
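Mice carrying the transplanted tumor received test compound or vehicle. Survival was recorded in each group, and the value is the treated-group measurement divided by that of the vehicle-treated control group.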

[1] abbreviates: dose: 100.0 mg/kg/injection, schedule: Q01DX001 (ip), vehicle: saline with Tween-80.
[2] abbreviates: dose: 200.0 mg/kg/injection, schedule: Q01DX001 (ip), vehicle: saline with Tween-80.
The mark [3] stands for this setting: dose: 25.0 mg/kg/injection, schedule: Q01DX009 (ip), vehicle: saline with Tween-80.
Setting [4] is: dose: 50.0 mg/kg/injection, schedule: Q01DX009 (ip), vehicle: saline with Tween-80.
Where [5] appears, read: dose: 100.0 mg/kg/injection, schedule: Q01DX009 (ip), vehicle: saline with Tween-80.
Where [6] appears, read: dose: 60.0 mg/kg/injection, schedule: Q01DX005 (ip), vehicle: saline with Tween-80.
The mark [7] stands for this setting: dose: 120.0 mg/kg/injection, schedule: Q01DX005 (ip), vehicle: saline with Tween-80.
Where [8] appears, read: dose: 240.0 mg/kg/injection, schedule: Q01DX005 (ip), vehicle: saline with Tween-80.
[9] abbreviates: dose: 50.0 mg/kg/injection, schedule: Q01DX005 (ip), vehicle: saline with Tween-80.
Setting [10] is: dose: 100.0 mg/kg/injection, schedule: Q01DX005 (ip), vehicle: saline with Tween-80.
Setting [11] is: dose: 12.5 mg/kg/injection, schedule: Q01DX009 (ip), vehicle: saline with Tween-80.

As for `Nc1nc(N)c2c(Cl)c(CNc3ccc(Cl)c(Cl)c3)ccc2n1`, the T/C runs as follows: (dose: 0.18 mg/kg/injection, schedule: Q01DX009 (ip), vehicle: saline with Tween-80) 97 % of control; (dose: 0.37 mg/kg/injection, schedule: Q01DX009 (ip), vehicle: saline with Tween-80) 102 % of control; (dose: 0.75 mg/kg/injection, schedule: Q01DX009 (ip), vehicle: saline with Tween-80) 99 % of control; (dose: 1.5 mg/kg/injection, schedule: Q01DX009 (ip), vehicle: saline with Tween-80) 99 % of control.

In the case of `C(=N\Nc1ccccn1)/c1ccccn1.C(=N\Nc1ccccn1)/c1ccccn1.[Cl-].[Fe+3]`, the T/C is, setting by setting: under setting [1], 100 % of control; under setting [2], 89 % of control.

For the compound `CC(=O)[C@H]1[C@H](O)C[C@H]2[C@@H]3CCC4=CC(=O)CC[C@]4(C)[C@@]3(F)[C@@H](O)C[C@@]21C`, the T/C reads like this: (dose: 100.0 mg/kg/injection, schedule: Q01DX009 (ip), vehicle: saline) 120 % of control; (dose: 200.0 mg/kg/injection, schedule: Q01DX009 (ip), vehicle: saline) 95 % of control.

On to `Nc1nc2n(O)cc(-c3ccccc3)nc-2c(=O)n1`, for which the T/C reads like this: (dose: 10.0 mg/kg/injection, schedule: Q01DX009 (ip), vehicle: saline with Tween-80) 89 % of control; (dose: 20.0 mg/kg/injection, schedule: Q01DX009 (ip), vehicle: saline with Tween-80) 101 % of control; (dose: 40.0 mg/kg/injection, schedule: Q01DX009 (ip), vehicle: saline with Tween-80) 92 % of control.

For `OCC1CC2(C1)CC(CO)C2` (stereo unspecified), the T/C runs as follows: under setting [1], 97 % of control; under setting [2], 104 % of control; (dose: 400.0 mg/kg/injection, schedule: Q01DX001 (ip), vehicle: saline with Tween-80) 99 % of control.

On to `COC1=C(C)C(=O)C2=C(C1=O)C(CO)N1C(C#N)C3CC4C(C1C2N1CCOC41)N3C` (stereo unspecified), for which the T/C was 111 % of control and 117 % of control (dose: 0.15 mg/kg/injection, schedule: Q01DX005 (ip), vehicle: acid diluted with saline); 113 % of control (dose: 0.3 mg/kg/injection, schedule: Q01DX005 (ip), vehicle: acid diluted with saline); 152 % of control (dose: 0.4 mg/kg/injection, schedule: Q01DX005 (ip), vehicle: saline + alcohol); 123 % of control (dose: 0.6 mg/kg/injection, schedule: Q01DX005 (ip), vehicle: acid diluted with saline); 154 % of control (dose: 0.8 mg/kg/injection, schedule: Q01DX005 (ip), vehicle: saline + alcohol).

For `Cc1ccc(C(=O)[O][Hg][CH2]C2COC([CH2][Hg][O]C(=O)c3ccc(C)cc3)CO2)cc1` (stereo unspecified), the T/C is 116 % of control under setting [3], 113 % of control under setting [4] and 100 % of control under setting [5].

Turning to `NC(N)=NCCCC(N)C(=O)NC(CCCN=C(N)N)C(=O)O` (stereo not drawn) (H-Arg-Arg-OH; configuration not given here), the T/C is 103 % of control (dose: 50.0 mg/kg/injection, schedule: Q01DX005 (ip), vehicle: Klucel (hydroxypropylcellulose) (HPC)); 100 % of control (dose: 100.0 mg/kg/injection, schedule: Q01DX005 (ip), vehicle: Klucel (hydroxypropylcellulose) (HPC)); 100 % of control (dose: 200.0 mg/kg/injection, schedule: Q01DX005 (ip), vehicle: Klucel (hydroxypropylcellulose) (HPC)).

Turning to `N/N=C/c1cccn1-c1ccccc1Cl`, the T/C by setting is: under setting [6], 93 % of control; under setting [7], 92 % of control.

For `C/C=C1/CN2CCc3c4n(c5ccccc35)[C@H](C(=O)OC)[C@H]1C[C@@H]42`, the T/C reads like this: (dose: 12.5 mg/kg/injection, schedule: Q01DX005 (ip), vehicle: acid diluted with saline) 107 % of control; (dose: 25.0 mg/kg/injection, schedule: Q01DX005 (ip), vehicle: acid diluted with saline) 94 % of control; (dose: 50.0 mg/kg/injection, schedule: Q01DX005 (ip), vehicle: acid diluted with saline) 98 % of control; (dose: 100.0 mg/kg/injection, schedule: Q01DX005 (ip), vehicle: acid diluted with saline) 100 % of control.

In the case of `NC(=O)c1sc(N2CCCC2)nc1N`, the T/C is 112 % of control under setting [6], 105 % of control under setting [7] and 118 % of control under setting [8].

Regarding `CCN(CC)CCN(Cc1ccccc1)C(=O)C1c2ccccc2Oc2ccccc21`, the T/C reads like this: under setting [9], 102 % of control; under setting [10], 105 % of control.

As to `C=C1CC2(CC[N+](Cc3ccccc3)(Cc3ccccc3)CC2)OC1=O`, the T/C is 103 % of control (dose: 12.5 mg/kg/injection, schedule: Q01DX005 (ip), vehicle: saline); 103 % of control (dose: 25.0 mg/kg/injection, schedule: Q01DX005 (ip), vehicle: saline); 102 % of control and 97 % of control (dose: 50.0 mg/kg/injection, schedule: Q01DX005 (ip), vehicle: saline).

Turning to `[Br][Sn]([CH2][Sn]([Br])([c]1ccccc1)[c]1ccccc1)([c]1ccccc1)[c]1ccccc1`, the T/C (dose: 6.25 mg/kg/injection, schedule: Q01DX005 (ip), vehicle: Klucel (hydroxypropylcellulose) (HPC)) is 110 % of control.

On to `CCCCOC(=O)/C=C(\I)C(=O)OCCCC`, for which the T/C was 101 % of control and 110 % of control and 92 % of control (dose: 6.25 mg/kg/injection, schedule: Q01DX009 (ip), vehicle: saline with Tween-80); 112 % of control and 114 % of control and 96 % of control under setting [11]; 113 % of control and 120 % of control and 124 % of control under setting [3]; 110 % of control and 111 % of control and 118 % of control under setting [4].

Regarding `CCCOC(=O)c1ccc(NC(=O)Nc2ccc(C(=O)OCC)cc2)cc1`, the T/C runs as follows: (dose: 60.0 mg/kg/injection, schedule: Q01DX005 (ip), vehicle: Klucel (hydroxypropylcellulose) (HPC)) 87 % of control; (dose: 120.0 mg/kg/injection, schedule: Q01DX005 (ip), vehicle: Klucel (hydroxypropylcellulose) (HPC)) 90 % of control; (dose: 240.0 mg/kg/injection, schedule: Q01DX005 (ip), vehicle: Klucel (hydroxypropylcellulose) (HPC)) 88 % of control.

In the case of `OC1c2cc(Cl)cc(Cl)c2OC2(N3CCCC3)CCCCC12` (stereo unspecified), the T/C under setting [4] was 100 % of control; the T/C under setting [5] was 96 % of control; the T/C (dose: 200.0 mg/kg/injection, schedule: Q01DX009 (ip), vehicle: saline with Tween-80) was 102 % of control.

Turning to `CC(C)(C)/C=C/N=NNc1ccccc1C(=O)NC(C)(C)C`, the T/C (dose: 15.0 mg/kg/injection, schedule: Q01DX005 (ip), vehicle: Klucel + Tween-80) was 95 % of control; the T/C (dose: 30.0 mg/kg/injection, schedule: Q01DX005 (ip), vehicle: Klucel + Tween-80) was 101 % of control; the T/C (dose: 60.0 mg/kg/injection, schedule: Q01DX005 (ip), vehicle: Klucel + Tween-80) was 87 % of control and 89 % of control.

Turning to `C1CC2CC1C13OC1CC1OC213` (stereo unspecified), the T/C is 104 % of control (dose: 100.0 mg/kg/injection, schedule: Q04DX002 (ip), vehicle: Klucel (hydroxypropylcellulose) (HPC)); 105 % of control (dose: 200.0 mg/kg/injection, schedule: Q04DX002 (ip), vehicle: Klucel (hydroxypropylcellulose) (HPC)); 111 % of control (dose: 400.0 mg/kg/injection, schedule: Q04DX002 (ip), vehicle: Klucel (hydroxypropylcellulose) (HPC)).

As for `c1ccc(P(CCP(c2ccccc2)c2ccccc2)c2ccccc2)cc1`, the T/C (dose: 25.0 mg/kg/injection, schedule: Q04DX003 (ip), vehicle: Klucel (hydroxypropylcellulose) (HPC)) is 117 % of control; the T/C (dose: 100.0 mg/kg/injection, schedule: Q04DX003 (ip), vehicle: Klucel (hydroxypropylcellulose) (HPC)) is 153 % of control; the T/C (dose: 200.0 mg/kg/injection, schedule: Q04DX003 (ip), vehicle: Klucel (hydroxypropylcellulose) (HPC)) was 161 % of control.

For the compound `CN(C)CC[Si](C)(C)N(C)C`, the T/C runs as follows: (dose: 60.0 mg/kg/injection, schedule: Q01DX005 (ip), vehicle: saline) 107 % of control; (dose: 120.0 mg/kg/injection, schedule: Q01DX005 (ip), vehicle: saline) 102 % of control.

Take `Cc1c(N)ccc(O)c1C`: the T/C reads like this: under setting [11], 120 % of control; under setting [3], 105 % of control; under setting [4], 100 % of control.

As for `Cc1c(N=Nc2cccc(Cl)c2Cl)c(-c2ccccc2)nn1C(=S)S`, the T/C runs as follows: under setting [9], 106 % of control; under setting [10], 94 % of control; (dose: 200.0 mg/kg/injection, schedule: Q01DX005 (ip), vehicle: saline with Tween-80) 103 % of control.

With `O=C(Nc1ccc(Cl)cc1)Nc1nnc(/C=C/c2ccc(Cl)c(Cl)c2)o1`, the T/C under setting [6] is 95 % of control, the T/C under setting [7] is 91 % of control and the T/C under setting [8] was 101 % of control.

On to `C[n+]1c2ccccc2cc2[nH]c3ccccc3c21`, for which, where the note is “dose: 6.25 mg/kg/injection, schedule: Q01DX005 (ip), vehicle: Klucel + Tween-80”, the T/C was 105 % of control.
